Data set [1] concerns SHIV. The following applies: cited from earlier work. From the text:
(§1) Similarly, HEC gel formulated cyanovirin was s ...

The test system of data set [2] is SHIV162P3. The following applies: TZM-bl cells; cited from earlier work.
From the text: as §1

The subject of data set [3] is SHIV162P3. The data set can be described thus: TZM-bl antiviral assay, SHIV162P3. The class given is cell-based, SHIV. To be noted: Table 2; B-R5; 10^-3 MOI, TZM-bl cells, 48 h; mean of at least 2 independent experiments, triplicates. Here is the method:
(§2) The IC50 of the various mCD4-conjugates were measured in TZM-bl cells (NIH AIDS Reagent Program, Germantown, MD 20874, US). This cell line expresses high densities of CD4, CCR5 and CXCR4. It contains a luciferase reporter gene under control of HIV LTR, which will be transcribed and translated into luciferase protein, if the cells get infected with HIV and start producing Tat. Briefly, 50 μl of TZM-bl cells (1 × 10^5 cells/mL) supplemented with 30 μg/mL DEAE dextran were incubated with a 50 μl of a 10-fold serial dilution of the compounds under investigation in 96-well flat bottom plates, prior to inoculation with 50 μl of various viruses (see Tables & and 2; 50, 100 or 200 TCID50 was used depending on the virus). As a positive control, 50 μl of compound-free medium was used and as a negative control, 100 μl of medium was added to 100 μl of TZM-bl cells. All conditions were done in triplicates. The plates were incubated for 48 hours (37 °C, 5% CO2). […] Next, the luciferase activity was measured using a TriStar LB941 luminometer (Berthold Technologies GmbH & Co. KG., Bad Wildbad, Germany) and expressed in relative light units (RLU) as a percentage of positive control wells. IC50 were calculated in GraphPad Prism 5.03 using non-linear regression (GraphPad Software, San Diego, CA, USA).

Data set [4] concerns HIV-1 VI820. The data set can be described thus: TZM-bl antiviral assay, VI820. The class given is cell-based. The following applies: Human immunodeficiency virus 1; Table 2; A-X4R5; 10^-3 MOI, TZM-bl cells, 48 h; mean of at least 2 independent experiments, triplicates. As to the method: as §2
Data set [5] deals with HIV strains from different subtypes. The data set can be described thus: TZM-bl antiviral assay, whole panel of strains. The class given is cell-based, HIV-1. To be noted: Human immunodeficiency virus 1, TZM-bl, read-out: active concentration across the panel. Here is the method:
as §2

Data set [6] deals with HIV-1 MP568 (CRF02). The data set can be described thus: microbe, parasite or virus in culture. The class given is cell-based. To be noted: Human immunodeficiency virus 1, TZM-bl, 48 h, read-out: IC50 MP568 (CRF02). As to the method:
(§3) The IC50 of the various mCD4-conjugates were measured in TZM-bl cells (NIH AIDS Reagent Program, Germantown, MD 20874, US). This cell line expresses high densities of CD4, CCR5 and CXCR4. It contains a luciferase reporter gene under control of HIV LTR, which will be transcribed and translated into luciferase protein, if the cells get infected with HIV and start producing Tat. Briefly, 50 μl of TZM-bl cells (1 × 10^5 cells/mL) supplemented with 30 μg/mL DEAE dextran were incubated with a 50 μl of a 10-fold serial dilution of the compounds under investigation in 96-well flat bottom plates, prior to inoculation with 50 μl of various viruses (see Tables & and 2; 50, 100 or 200 TCID50 was used depending on the virus). As a positive control, 50 μl of compound-free medium was used and as a negative control, 100 μl of medium was added to 100 μl of TZM-bl cells. All conditions were done in triplicates. The plates were incubated for 48 hours (37 °C, 5% CO2). Subsequently, 120 μL of supernatants were removed, 75 μl of the luciferase substrate Steadylite (Perkin Elmer, Life Sciences, Zaventem, Belgium) were added to the wells and the plates were incubated at room temperature on an orbital shaker for 10 minutes. Next, the luciferase activity was measured using a TriStar LB941 luminometer (Berthold Technologies GmbH & Co. KG., Bad Wildbad, Germany) and expressed in relative light units (RLU) as a percentage of positive control wells. IC50 were calculated in GraphPad Prism 5.03 using non-linear regression (GraphPad Software, San Diego, CA, USA).

For data set [7], the system named is HIV-1 pREJO.c/2864 cl2. The data set can be described thus: microbe, parasite or virus in culture. Type of data set: cell-based. To be noted: Human immunodeficiency virus 1, TZM-bl, 48 h, read-out: IC50 pREJO.c/2864 cl2. Here is the method:
as §3

Data set [8] relates to HIV-1 pTHRO.c/2626. As to the kind of experiment: microbe, parasite or virus in culture. Type of data set: cell-based. The following applies: Human immunodeficiency virus 1, TZM-bl, 48 h, read-out: IC50 pTHRO.c/2626. As to the method:
as §3

Data set [9] deals with HIV-1 p246F10. The data set can be described thus: microbe, parasite or virus in culture. The following applies: Human immunodeficiency virus 1, TZM-bl, 48 h, read-out: IC50 P246F10. The class given is cell-based. Here is the method: as §3
Data set [10] has as its system HIV-1 VI1888 (CRF01). The data set can be described thus: microbe, parasite or virus in culture. Type of data set: cell-based. To be noted: Human immunodeficiency virus 1, TZM-bl, 48 h, read-out: IC50 VI1888 (CRF01). As to the method: as §3
For data set [11], the system named is HIV-1 VI824. As to the kind of experiment: microbe, parasite or virus in culture. Type of data set: cell-based. The following applies: Human immunodeficiency virus 1, TZM-bl, 48 h, read-out: IC50 VI824. As to the method: as §3
The test system of data set [12] is HIV-1 Ca10-3 (CRF01). The data set can be described thus: microbe, parasite or virus in culture. The class given is cell-based. To be noted: Human immunodeficiency virus 1, TZM-bl, 48 h, read-out: IC50 Ca10-3 (CRF01). As to the method: as §3
The test system of data set [13] is HIV-1 pWITO.c/2474. The data set can be described thus: microbe, parasite or virus in culture. Type of data set: cell-based. The following applies: Human immunodeficiency virus 1, TZM-bl, 48 h, read-out: IC50 pWITO.c/2474. As to the method: as §3
Data set [14] deals with HIV-1 pZM247Fv2. As to the kind of experiment: microbe, parasite or virus in culture. To be noted: Human immunodeficiency virus 1, TZM-bl, 48 h, read-out: IC50 pZM247Fv2. The class given is cell-based. Here is the method:
as §3

Data set [15] relates to HIV-1 SF162. The data set can be described thus: TZM-bl antiviral assay, SF162. The class given is cell-based. To be noted: Human immunodeficiency virus 1; Table 2; B-R5; 10^-3 MOI, TZM-bl cells, 48 h; mean of at least 2 independent experiments, triplicates. As to the method:
as §2

Data set [16] has as its system HIV-1 VI829. The data set can be described thus: TZM-bl antiviral assay, VI829. The class given is cell-based. The following applies: Human immunodeficiency virus 1; Table 2; C-R5; 10^-3 MOI, TZM-bl cells, 48 h; mean of at least 2 independent experiments, triplicates. As to the method:
as §2

Data set [17] has as its system HIV-1 IIIB. As to the kind of experiment: TZM-bl antiviral assay, IIIB. The class given is cell-based. The following applies: Human immunodeficiency virus 1, IIIB; Table 2; B-X4; 10^-3 MOI, TZM-bl cells, 48 h; mean of at least 2 independent experiments, triplicates. As to the method:
as §2

Data set [18] has as its system HIV-1 Bal. As to the kind of experiment: TZM-bl antiviral assay, Bal. Type of data set: cell-based. To be noted: Human immunodeficiency virus 1, BAL; Table 2; B-R5; 10^-3 MOI, TZM-bl cells, 48 h; mean of at least 2 independent experiments, triplicates. As to the method: as §2
Data set [19] has as its system HIV-1 MN. As to the kind of experiment: TZM-bl antiviral assay, MN. Type of data set: cell-based. To be noted: Human immunodeficiency virus 1; Table 2; B-X4; 10^-3 MOI, TZM-bl cells, 48 h; mean of at least 2 independent experiments, triplicates. Here is the method:
as §2

Data set [20] concerns HIV-1. The following applies: vaginal gel formulation (Tenofovir) or vaginal ring (Dapivirin); cited from earlier work. Here is the method:
Microbicides offer distinct advantages as their use should reduce side effects associated with systemic treatment and they could prevent the establishment of viral founder populations. Up to now several molecules targeting the attachment and entry of HIV were tested in clinical trials, including surfactants, such as nonoxynol–9 and C31G that disrupt the viral lipid envelope and non-specific polyanions, such as carrageenan, cellulose sulfate, as well as a sulfonated naphthalene derivative (PRO2000), presumably mimicking heparan sulfate (HS) and blocking virus-cell interactions. ...

The subject of data set [21] is TZM-bl cells. As to the kind of experiment: WST-1 cytotoxicity assay. Type of data set: cell-based. The following applies: Table 2, 50% cytotoxic concentration, WST-1, 48 h. As to the method: The water soluble tetrazolium-1 (WST-1) cell proliferation assay is based on the cleavage of the tetrazolium salt WST-1 to a formazan dye by a complex cellular mechanism. Because this bioreduction is dependent on the glycolytic production of NAD(P)H in viable cells, the amount of formazan dye formed is correlates directly to the number of viable cells in a culture. Quantification is done by measuring absorbance at 450 nm in a multiwell plate reader. TZMbl cells (10^4 cells/well) were plated in a 96-well plate and a serial dilution of compound was added. 48 h later, cell proliferation reagent was added and cell viability was measured compared to untreated control cultures. Cell viability was plotted against the compound concentration and non-linear regression analysis was performed to calculate the 50% cytotoxic concentration (CC50).
(Formazan colour is commonly taken as a measure of viable cells.)

Setting [22] is: HEC gel formulated, applied at 0.5 to 2 mM.

Where two headings read alike, the source gives them in different places.

For `COc1ccnc2[nH]cc(C(=O)C(=O)N3CCN(C(=O)c4ccccc4)C[C@H]3C)c12` [BMS-378806], the protection in [1] (administered at 5.5 mM) is listed as 75%. In data set [2], the IC50 was 5.5 nM.
As to `Cc1cc(C)c(Nc2ccnc(Nc3ccc(C#N)cc3)n2)c(C)c1` [TMC120 Dapivirine, Dapivirine], the IC50 is above 1000 nM in data set [3]; 2 nM in data set [4]; 1 to 2 nM in data set [5]; 1.1 nM in data set [6]; 1.6 nM in data set [7]; 1.9 nM in [8]. Further, the IC50 amounted to 1.4 nM in data set [9]; 2.1 nM in [10]; 1.2 nM in [11]; 1.2 nM in data set [12]; 1.1 nM in [13]; 2.3 nM in data set [14]. In addition, the IC50 in data set [15] is 1.3 nM; in data set [16], 1.3 nM; in data set [17] it was 0.84 nM; in [18] it was 1.7 nM; in [19], 1.5 nM. In addition, in data set [20], the “reduction in HIV-1 acquisition” value is on record as “up to 40%”. The molecule also gave a 50% cytotoxic concentration (CC50) in data set [21] of 2524 nM.
As for `C[C@H](Cn1cnc2c(N)ncnc21)OCP(=O)(O)O` [Tenofovir], the “reduction in HIV-1 acquisition” value in data set [20] was “up to 40%”.
Consider maraviroc, for which the protection in data set [1] (500 μM intravaginally) was 50%. Besides, in [1] (6 mM intravaginally), the macaques remaining uninfected is given as 6 of 7.

B1: cyanovirin: HEC gel formulated cyanovirin (protein, UniProt P81180 1-101, looked up)
Cyanovirin-N: LGKFSQTCYNSAIQGSVLTSTCERTNGGYNTSSIDLNSVIENVDGSLKWQPSNFIETCRNTQLAGSSELAAECKTRAQQFVSTKINLDDHIANIDGTLKYE
modifications: HEC gel formulation
For the molecule B1, in data set [1] (setting [22]), the animals protected is 5 out of 6 and the protection is listed as 83%.

One may read the CC50 as the concentration giving 50% cytotoxicity.

The values are drawn from paper PMC5056392, “CD4-mimetic sulfopeptide conjugates display sub-nanomolar anti-HIV-1 activity and protect macaques against a SHIV162P3 vaginal challenge” (Scientific Reports, 2016).
